In PubChem BioAssay (NCI):
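Five compound concentrations were applied to cells in 96-well plates for 48 hours; endpoints were derived by simple linear interpolation of the resulting dose-response curve. TGI: total growth inhibition.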 Where a SMILES comes first, the peptide text is derived from it. The star is where a group is joined. Cbz = O=C(OCc1ccccc1)*

These compounds were tested on T-47D breast (assay: inhibition of tumour cell growth, NCI panel, 48 h).

Structure (SMILES) | TGI
CN1CCN(C(=S)N2CCN(C)CC2)CC1 | > 100 µM
O=Cc1[nH]c(=O)[nH]c(=O)c1C(=O)O | > 100 µM
Nc1nc(SC/C=C/c2ccccc2)c2[nH]cnc2n1 | > 100 µM
CSc1nc(Nc2cccc(C(F)(F)F)c2)c2c(N)nn(C)c2n1 | > 100 µM
CCCCNC(=S)Nc1nc(C(=O)NNC(=S)Nc2ccccc2)cs1 | > 100 µM
CC1CCC(=O)C(C(=O)CC2CC(=O)N(C)C(=O)C2)C1 (stereo not drawn) | > 100 µM
COc1cc2c(C)cc(O)cc2c2cc(O)c(C)cc12 | 20.5 µM
COc1ccc(-[n+]2nc(S(=O)(=O)O)c(/C=C/c3ccc(N(C)C)cc3)cc2C#N)cc1 | > 100 µM
C/C=C(/C)C(=O)O[C@@H]1CCN2CC[C@H](COC(=O)/C(=C/C)CO)C12 (stereo partly drawn) | > 100 µM

What follows are compounds tested on TK-10 renal (assay: inhibition of tumour cell growth, NCI panel, 48 h).

Structure (SMILES) | TGI
COc1cc(NS(C)(=O)=O)ccc1Nc1c2ccccc2nc2c1[nH]c1ccc(NC3OC(CO)C(O)C(O)C3O)cc12 (stereo not drawn) | 0.7 µM
O=C(O)CCC(NC(=O)OCc1ccccc1)C(=O)NC(Cc1cnc[nH]1)C(=O)O (stereo not drawn) (Cbz-Glu-His-OH; configuration not given here) | > 100 µM
O=[N+]([O-])/C(C(Cl)=C(Cl)Cl)=C(/Cl)Sc1ccccc1 | 5.9 µM
Clc1ccc(C2C3COc4ccccc4C3=NN2c2ccccc2)cc1 (stereo not drawn) | > 100 µM
COC(=O)C1=C(O)C(C(=O)OC)[C@]2(O)[C@H](C(=O)OC)[C@H]1C[C@@H](c1ccc(C(F)(F)F)cc1)[C@H]2C(=O)OC (stereo partly drawn) | 22.5 µM
CCOC(=O)C12OC(CCC1=O)C(C(=O)OC)=C2C(=O)OC (stereo not drawn) | > 10 µM
CCOC(=O)NC(Nc1ccc(S(=O)(=O)Nc2nc(C)cc(C)n2)cc1)(C(=O)OCC)C(F)(F)F (stereo not drawn) | > 100 µM
COc1ccc(C(OCC2OC(n3cc(C)c(=O)[nH]c3=O)CC2n2cc(Cn3cc(Cl)c(=O)[nH]c3=O)nn2)(c2ccccc2)c2ccccc2)cc1 (stereo not drawn) | > 100 µM
CC(=O)c1[nH]c(NCc2ccccc2)c(C(=S)Nc2ccccc2)c1N | 63.8 µM
CN1CCN(C(=S)N2CCN(C)CC2)CC1 | > 100 µM
O=Cc1[nH]c(=O)[nH]c(=O)c1C(=O)O | > 100 µM
Nc1nc(SC/C=C/c2ccccc2)c2[nH]cnc2n1 | > 100 µM
CSc1nc(Nc2cccc(C(F)(F)F)c2)c2c(N)nn(C)c2n1 | > 100 µM
CCCCNC(=S)Nc1nc(C(=O)NNC(=S)Nc2ccccc2)cs1 | > 100 µM
CC1CCC(=O)C(C(=O)CC2CC(=O)N(C)C(=O)C2)C1 (stereo not drawn) | > 100 µM
COc1cc2c(C)cc(O)cc2c2cc(O)c(C)cc12 | 23.8 µM
COc1ccc(-[n+]2nc(S(=O)(=O)O)c(/C=C/c3ccc(N(C)C)cc3)cc2C#N)cc1 | > 100 µM
C/C=C(/C)C(=O)O[C@@H]1CCN2CC[C@H](COC(=O)/C(=C/C)CO)C12 (stereo partly drawn) | > 100 µM

The compounds below were run on UACC-62 melanoma (assay: inhibition of tumour cell growth, NCI panel, 48 h).

Structure (SMILES) | TGI
COc1cc(NS(C)(=O)=O)ccc1Nc1c2ccccc2nc2c1[nH]c1ccc(NC3OC(CO)C(O)C(O)C3O)cc12 (stereo not drawn) | 1.08 µM
O=C(O)CCC(NC(=O)OCc1ccccc1)C(=O)NC(Cc1cnc[nH]1)C(=O)O (stereo not drawn) (Cbz-Glu-His-OH; configuration not given here) | > 100 µM
O=[N+]([O-])/C(C(Cl)=C(Cl)Cl)=C(/Cl)Sc1ccccc1 | 3.36 µM
Clc1ccc(C2C3COc4ccccc4C3=NN2c2ccccc2)cc1 (stereo not drawn) | > 100 µM
COC(=O)C1=C(O)C(C(=O)OC)[C@]2(O)[C@H](C(=O)OC)[C@H]1C[C@@H](c1ccc(C(F)(F)F)cc1)[C@H]2C(=O)OC (stereo partly drawn) | 29 µM
CCOC(=O)C12OC(CCC1=O)C(C(=O)OC)=C2C(=O)OC (stereo not drawn) | > 10 µM
CCOC(=O)NC(Nc1ccc(S(=O)(=O)Nc2nc(C)cc(C)n2)cc1)(C(=O)OCC)C(F)(F)F (stereo not drawn) | > 100 µM
COc1ccc(C(OCC2OC(n3cc(C)c(=O)[nH]c3=O)CC2n2cc(Cn3cc(Cl)c(=O)[nH]c3=O)nn2)(c2ccccc2)c2ccccc2)cc1 (stereo not drawn) | > 100 µM
CC(=O)c1[nH]c(NCc2ccccc2)c(C(=S)Nc2ccccc2)c1N | 32.5 µM
CN1CCN(C(=S)N2CCN(C)CC2)CC1 | > 100 µM
O=Cc1[nH]c(=O)[nH]c(=O)c1C(=O)O | > 100 µM
Nc1nc(SC/C=C/c2ccccc2)c2[nH]cnc2n1 | > 100 µM
CSc1nc(Nc2cccc(C(F)(F)F)c2)c2c(N)nn(C)c2n1 | > 100 µM
CCCCNC(=S)Nc1nc(C(=O)NNC(=S)Nc2ccccc2)cs1 | > 100 µM
CC1CCC(=O)C(C(=O)CC2CC(=O)N(C)C(=O)C2)C1 (stereo not drawn) | > 100 µM
COc1cc2c(C)cc(O)cc2c2cc(O)c(C)cc12 | 22.3 µM
COc1ccc(-[n+]2nc(S(=O)(=O)O)c(/C=C/c3ccc(N(C)C)cc3)cc2C#N)cc1 | > 100 µM
C/C=C(/C)C(=O)O[C@@H]1CCN2CC[C@H](COC(=O)/C(=C/C)CO)C12 (stereo partly drawn) | > 100 µM

The compounds below were run on UO-31 renal (assay: inhibition of tumour cell growth, NCI panel, 48 h).

Structure (SMILES) | TGI
COc1cc(NS(C)(=O)=O)ccc1Nc1c2ccccc2nc2c1[nH]c1ccc(NC3OC(CO)C(O)C(O)C3O)cc12 (stereo not drawn) | 1.19 µM
O=C(O)CCC(NC(=O)OCc1ccccc1)C(=O)NC(Cc1cnc[nH]1)C(=O)O (stereo not drawn) (Cbz-Glu-His-OH; configuration not given here) | > 100 µM
O=[N+]([O-])/C(C(Cl)=C(Cl)Cl)=C(/Cl)Sc1ccccc1 | 3.02 µM
Clc1ccc(C2C3COc4ccccc4C3=NN2c2ccccc2)cc1 (stereo not drawn) | > 100 µM
COC(=O)C1=C(O)C(C(=O)OC)[C@]2(O)[C@H](C(=O)OC)[C@H]1C[C@@H](c1ccc(C(F)(F)F)cc1)[C@H]2C(=O)OC (stereo partly drawn) | 8.42 µM
CCOC(=O)C12OC(CCC1=O)C(C(=O)OC)=C2C(=O)OC (stereo not drawn) | > 10 µM
CCOC(=O)NC(Nc1ccc(S(=O)(=O)Nc2nc(C)cc(C)n2)cc1)(C(=O)OCC)C(F)(F)F (stereo not drawn) | > 100 µM
COc1ccc(C(OCC2OC(n3cc(C)c(=O)[nH]c3=O)CC2n2cc(Cn3cc(Cl)c(=O)[nH]c3=O)nn2)(c2ccccc2)c2ccccc2)cc1 (stereo not drawn) | > 100 µM
CC(=O)c1[nH]c(NCc2ccccc2)c(C(=S)Nc2ccccc2)c1N | 6.34 µM
CN1CCN(C(=S)N2CCN(C)CC2)CC1 | > 100 µM
O=Cc1[nH]c(=O)[nH]c(=O)c1C(=O)O | > 100 µM
Nc1nc(SC/C=C/c2ccccc2)c2[nH]cnc2n1 | > 100 µM
CSc1nc(Nc2cccc(C(F)(F)F)c2)c2c(N)nn(C)c2n1 | > 100 µM
CCCCNC(=S)Nc1nc(C(=O)NNC(=S)Nc2ccccc2)cs1 | > 100 µM
CC1CCC(=O)C(C(=O)CC2CC(=O)N(C)C(=O)C2)C1 (stereo not drawn) | > 100 µM
COc1cc2c(C)cc(O)cc2c2cc(O)c(C)cc12 | 19.1 µM
COc1ccc(-[n+]2nc(S(=O)(=O)O)c(/C=C/c3ccc(N(C)C)cc3)cc2C#N)cc1 | > 100 µM
C/C=C(/C)C(=O)O[C@@H]1CCN2CC[C@H](COC(=O)/C(=C/C)CO)C12 (stereo partly drawn) | > 100 µM
